For series [1], the target named is Voltage-gated inwardly rectifying potassium channel KCNH2 (Homo sapiens, UniProt Q12809). The experiment in a line: Displacement of [3H]-dofetilite from human ERG (unknown origin). In kind it is toxicity. (In general: In a radioligand displacement assay an active substance lowers the binding of a labelled ligand.)
The nature of series [2]: Solubility of the compound. In kind it is physicochemical.
Another series has as its target T1, Toll-like receptor 7 (Mus musculus, UniProt P58681).
T1 sequence (P58681 whole entry): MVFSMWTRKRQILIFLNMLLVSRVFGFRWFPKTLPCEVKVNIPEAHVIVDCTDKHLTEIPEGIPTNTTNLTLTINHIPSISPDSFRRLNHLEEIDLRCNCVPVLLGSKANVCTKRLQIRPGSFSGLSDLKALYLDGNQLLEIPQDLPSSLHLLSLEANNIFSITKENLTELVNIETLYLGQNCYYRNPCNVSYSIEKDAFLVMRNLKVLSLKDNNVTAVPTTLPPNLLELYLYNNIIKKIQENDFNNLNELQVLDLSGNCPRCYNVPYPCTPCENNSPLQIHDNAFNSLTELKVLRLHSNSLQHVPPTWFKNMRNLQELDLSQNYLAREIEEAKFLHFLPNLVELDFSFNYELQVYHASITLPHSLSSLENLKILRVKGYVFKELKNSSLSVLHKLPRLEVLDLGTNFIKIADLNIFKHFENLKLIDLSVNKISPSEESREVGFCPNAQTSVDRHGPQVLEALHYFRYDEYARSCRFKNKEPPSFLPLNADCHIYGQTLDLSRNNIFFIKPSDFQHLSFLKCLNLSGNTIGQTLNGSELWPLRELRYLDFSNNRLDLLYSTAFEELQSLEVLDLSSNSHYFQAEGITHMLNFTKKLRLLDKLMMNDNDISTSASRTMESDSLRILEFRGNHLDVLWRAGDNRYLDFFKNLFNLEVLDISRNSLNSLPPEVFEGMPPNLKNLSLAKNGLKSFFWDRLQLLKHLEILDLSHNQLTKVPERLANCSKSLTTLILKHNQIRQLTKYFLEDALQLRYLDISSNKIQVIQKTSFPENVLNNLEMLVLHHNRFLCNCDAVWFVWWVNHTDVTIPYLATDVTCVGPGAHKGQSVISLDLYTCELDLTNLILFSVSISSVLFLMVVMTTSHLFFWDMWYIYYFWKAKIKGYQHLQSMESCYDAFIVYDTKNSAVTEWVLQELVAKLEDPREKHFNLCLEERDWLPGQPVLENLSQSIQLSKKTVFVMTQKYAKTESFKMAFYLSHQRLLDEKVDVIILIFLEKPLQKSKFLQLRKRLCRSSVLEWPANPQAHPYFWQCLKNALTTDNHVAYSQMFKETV
The experiment in a line: Antagonist activity at TLR7 in mouse Splenocyte assessed as reduction in IFN-alpha level measured after 20 hrs by Spectramax M5 method. In kind it is cell-based.

pIC50: −log10 of the molar value. ≈ marks a conversion by molar mass, not a printed value.

Voltage-gated inwardly rectifying potassium channel KCNH2, sequence (Q12809 whole entry): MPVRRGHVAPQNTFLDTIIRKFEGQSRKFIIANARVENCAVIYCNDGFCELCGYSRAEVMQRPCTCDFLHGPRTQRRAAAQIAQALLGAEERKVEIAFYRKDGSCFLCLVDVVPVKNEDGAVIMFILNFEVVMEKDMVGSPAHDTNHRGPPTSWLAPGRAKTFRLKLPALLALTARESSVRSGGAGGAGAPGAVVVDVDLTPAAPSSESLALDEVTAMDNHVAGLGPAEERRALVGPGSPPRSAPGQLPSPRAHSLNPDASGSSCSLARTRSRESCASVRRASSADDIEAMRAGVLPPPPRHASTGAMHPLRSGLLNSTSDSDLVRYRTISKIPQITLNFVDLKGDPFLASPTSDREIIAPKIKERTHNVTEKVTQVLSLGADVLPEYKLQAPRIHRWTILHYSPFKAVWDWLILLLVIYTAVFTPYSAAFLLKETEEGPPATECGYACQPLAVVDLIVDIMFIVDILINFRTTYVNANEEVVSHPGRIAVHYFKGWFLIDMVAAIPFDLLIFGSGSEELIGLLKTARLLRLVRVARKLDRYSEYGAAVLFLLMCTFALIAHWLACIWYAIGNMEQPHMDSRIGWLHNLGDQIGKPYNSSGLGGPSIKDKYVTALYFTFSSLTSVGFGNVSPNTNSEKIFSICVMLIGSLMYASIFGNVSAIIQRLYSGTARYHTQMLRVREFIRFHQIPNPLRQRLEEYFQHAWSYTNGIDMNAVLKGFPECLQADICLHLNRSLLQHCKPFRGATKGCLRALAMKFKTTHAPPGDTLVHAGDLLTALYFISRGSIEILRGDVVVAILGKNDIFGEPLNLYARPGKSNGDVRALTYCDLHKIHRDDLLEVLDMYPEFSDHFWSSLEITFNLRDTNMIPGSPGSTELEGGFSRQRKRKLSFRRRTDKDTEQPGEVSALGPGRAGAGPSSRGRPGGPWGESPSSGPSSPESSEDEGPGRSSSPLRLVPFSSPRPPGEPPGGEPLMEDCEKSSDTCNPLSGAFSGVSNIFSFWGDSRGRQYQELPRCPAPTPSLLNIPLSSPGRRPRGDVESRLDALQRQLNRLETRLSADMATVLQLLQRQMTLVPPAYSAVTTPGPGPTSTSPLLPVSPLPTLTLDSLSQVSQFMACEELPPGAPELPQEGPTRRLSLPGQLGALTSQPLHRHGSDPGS

The pIC50 is −log10 of the IC50, conventionally taken in molar units. One may read the solubility as the concentration that dissolves in the medium under given conditions. Low values mean little dissolved substance, high ones much dissolved substance. As for `Cc1cc(-c2cnc(OCC34CCC(N)(CC3)CC4)c(C)c2)c2cnn(C)c2n1`, the results for the negative-log IC50 (pIC50) (in series [1]; at Toll-like receptor 7) were 5.47 and over 8.30, respectively. The compound further displayed a solubility in series [2] of 110 µM (≈ 43.1 µg/mL).

The values above are taken from ChEMBL document CHEMBL5360657, “Discovery of the TLR7/8 Antagonist MHV370 for Treatment of Systemic Autoimmune Diseases” (ACS Med Chem Lett, 2023).
